Mortality data for 7 compounds are collected here from patent US20200017490A1, “Novel Mesoionic Insecticidal Compound” (Nippon Kayaku Kabushiki Kaisha, priority 2016, published 2020).

Holding throughout (assay): whole plant or invertebrate
Holding throughout (assay type): in vivo

Experiment [1] concerns Brown Planthopper (Nilaparvata lugens). The note with it: foliar, 120 h, rice seedling foliage dipping, third instar larvae, 5 days after the treatment, 25° C. Here is the method: Biological Test Example 3: Test (Foliage Dipping) for Controlling Brown Planthopper (Nilaparvata lugens)
Ten sampled rice seedlings were dipped in the chemical solution of the test compounds diluted with water to 200 ppm in an amount of 20 mL and air-dried. After air-drying, the rice seedlings held with urethane in a glass cylinder having an inner diameter of 4.5 cm and a length of 14 cm were set up in a plastic cup containing 40 mL of water. Larvae of brown planthoppers in the third instar larva were released in the glass cylinder. The cylinder was covered with a lid of medicine paper and kept in a chamber at a constant temperature of 25° C. for rearing.

Experiment [2] deals with Southern Yellow thrips (Thrips palmi). As to conditions: 72 h, foliar spraying on cucumber leaf, first instar larvae, 3 days after the treatment, 25° C. On the procedure:
Biological Test Example 5: Test (Foliar Spraying) for Controlling Southern Yellow thrips (Thrips palmi)
A cucumber leaf cut to a diameter of 1.5 cm was placed on cotton wool moistened with water. The diluent of the test compounds diluted with water to 200 ppm in an amount of 2 mL was sprayed onto the cucumber leaves with a spray tower. After air-drying, 5 larvae of southern yellow thrips in the first instar larva were released there and placed with cotton wool in a plastic cup, which was covered with a lid and kept in a chamber at a constant temperature of 25° C. for rearing.

Experiment [3] has as its system Cotton Aphid (Aphis gossypii). The note with it: 120 h, foliar spraying on cucumber leaf, cotton aphid offspring, 5 days after the treatment, 25° C. On the procedure: Biological Test Example 1: Test (Foliar Spraying) for Controlling Cotton Aphid (Aphis gossypii)
A cucumber leaf cut to a diameter of 3.5 cm was placed on cotton wool moistened with water. Two adult cotton aphids were released there for offspring for 24 hours and the adult insects were then removed. The diluent of the test compounds diluted with water to 200 ppm in an amount of 2 mL was sprayed onto the cucumber leaves with a spray tower. After air-drying, the sample with cotton wool was placed in a plastic cup, which was covered with a lid and kept in a chamber at a constant temperature of 25° C. for rearing.

The test system of experiment [4] is Brown Planthopper (Nilaparvata lugens). The note with it: rice seedling root dipping, third instar larvae released after 2 days, 5 days after the treatment, 25° C. On the procedure: Biological Test Example 4: Test (Root Dipping) for Controlling Brown Planthopper (Nilaparvata lugens)
Ten sampled rice seedlings held with urethane in a glass cylinder having an inner diameter of 4.5 cm and a length of 14 cm were set up in a plastic cup containing 40 mL of chemical solution diluted with water to 0.8 ppm. After 2 days, 10 larvae of brown planthoppers in the third instar larva were released in the glass cylinder. The glass cylinder was covered with a lid of medicine paper and kept in a chamber at a constant temperature of 25° C. for rearing.

The test system of experiment [5] is Diamondback Moth (Plutella xylostella). As to conditions: foliar, 120 h, cabbage leaf dipping, third instar larvae, 5 days after the treatment, 25° C. On the procedure:
Biological Test Example 2: Test (Foliage Dipping) for Controlling Diamondback Moth (Plutella xylostella)
A cabbage leaf cut to a diameter of 5.0 cm was dipped in the diluent of the test compounds diluted with water to 200 ppm in an amount of 20 mL and air-dried. After air-drying, the cabbage leaf was placed in a plastic cup, and 10 larvae of diamondback moths in the third instar larva were released there. The cup was covered with a lid and kept in a chamber at a constant temperature of 25° C. for rearing.

As to `COc1cccc(-c2c(O)[n+](CCC=N[N+](C)(C)C)c3ccccn3c2=O)c1` [Compound K-1], in experiment [1], the mortality – broadly, the share of the test organisms that died – at 200 ppm was at least 80%. For the compound `O=c1c(-c2cccc(C(F)(F)F)c2)c([O-])[n+](CCC=NOc2ccc(Cl)nc2)c2ccccn12` [Compound K-2], the mortality at 200 ppm in experiment [2], in experiment [3] and in experiment [5] was at least 80% in each case. Further, the mortality at 0.8 ppm in experiment [4] was at least 80%.

Turning to `CC(C)(C)[S+]([O-])N=CCC[n+]1c([O-])c(-c2cccc(C(F)(F)F)c2)c(=O)n2ccccc21` (stereo not shown) [Compound K-3], the mortality at 200 ppm in experiment [1] is at least 80%.

The compound `CC(C)=CCON=CCC[n+]1c([O-])c(CC=C(C)C)c(=O)n2ccccc21` [Compound K-7] gave a mortality at 200 ppm in experiment [1] of at least 80%. In experiment [1], `CCOC(C)ON=CCC[n+]1c([O-])c(CC=C(C)C)c(=O)n2ccccc21` (stereo not shown) [Compound K-8] showed a mortality at 200 ppm of at least 80%.

For `C=CCc1c([O-])[n+](CCC=NOC(C)OCC)c2ccccn2c1=O` (stereo not shown) [Compound K-9], the mortality at 200 ppm in experiment [1] was at least 80%.

In the case of `O=c1c(-c2ccccc2)c([O-])[n+](CCC=NOC2COCCO2)c2ccccn12` (stereo not shown) [Compound K-10], the mortality at 200 ppm in experiment [1] is at least 80%.
